Test results taken from patent US20090117167A1 (AlgoRx, priority 2002, published 2009).
Values joined by “and” are separate entries in the source; they are usually repeats but may differ in a detail not shown here. Identical values can stand only once.

Key:
[1] = tested on: animal models of inflammatory pain (formalin test); details: administered locally; cited from earlier work
[2] = tested on: animal models of neuropathic pain (spinal nerve ligation); details: administered locally; cited from earlier work
[3] = tested on: subjects with osteoarthritis of the knee; assay: Osteoarthritis of the knee safety study: safety and tolerability of intra-articular capsaicin; assay type: in vivo, human; details: for patients reporting transient burning pain / post injection hyperalgesia after instillation: 4 subjects
Protocol: The primary objective of the study was to evaluate the safety and tolerability of intra-articular capsaicin, when co-administered with intra-articular local anesthetic, compared to placebo, in subjects with end-stage osteoarthritis of the knee, already scheduled to receive knee replacements.
The study was designed to include 16 evaluation subjects. […] Sixteen subjects completed the study.
Patients were treated randomly and in double-blind fashion in four treatment groups, with each group having a progressively longer interval between the intra-articular administration of study medication and subsequent total knee replacement (2, 4, 7, and 14 days). […] Gross and microscopic pathology analysis was completed for each treatment group before the next treatment group was treated.
(§1) Each subject had 3 study visits: a Screening Day (Day −7 to −1), the Treatment Day (Day 0), and a Post-Treatment Day (scheduled for Day +2, +4, +7, or +14). On the Treatment Day the subject was randomized, pre-treatment evaluation was performed. The patients were brought into the procedure room, and a VAS pain score was taken (0 mm-no pain, 100 mm-extreme pain). Once the patient had marked his or her pain on the card, he/she was prepped for knee cannulation. Once the cannula was placed, the patient received by intra-articular infiltration, 3 mg/kg (maximum dose of 200 mg) of 2% lignocaine into the knee scheduled to be replaced.
(§2) VAS pain scores as well as verbal reports were taken immediately following administration, as well as prior to knee replacement surgery. No subjects discontinued from the study due to adverse events.

[4] = design: species or system human; details: in vivo
Protocol: The pharmacokinetic parameters of Cmax, Tmax, AUC(0-tlast) and t½ were evaluated.

[5] = tested on: subjects with osteoarthritis of the knee; assay: Osteoarthritis of the knee safety study: VAS pain score at the target knee; assay type: in vivo, human
Protocol: as §1, §2
On the Post-Treatment Day, study evaluation was performed followed by the scheduled knee replacement, with intra-operative bone and soft tissue biopsies performed for subsequent examination. […] This therefore left the 3 placebo and 9 active patients from the 4 day, 7 day, and 14 day cohorts.

[6] = tested on: subjects undergoing transpositional osteotomy (bunionectomy); assay: Bunionectomy efficacy study: VAS pain score and rescue medication; assay type: in vivo, human; details: for VAS pain score at operation site: 1000 μg into wound, mean +/- SEM, n = 11
Protocol: The primary efficacy endpoint was the proportion of subjects in each treatment group requiring opioid analgesia in the first 24 hours post-operatively. The proportions were compared amongst treatment groups using the Cochran-Haenszel test. Secondary efficacy end points included: i) proportion of subjects in each treatment group requiring opioid analgesia in the first 36 hour period post-operatively (Similarly, the proportions were compared amongst treatment groups using the Cochran-Haenszel test); ii) proportion of subjects in each treatment group requiring opioid analgesia in the 10 day period post-operatively (Similarly, the proportions were compared amongst treatment groups using the Cochran-Haenszel test); iii) time to first usage of opioid analgesia in each treatment group (a survival analysis approach will be used: the product-limit (Kaplan-Meier) method will be applied to time to first usage of opioid analgesia. The median time to first usage of opioid analgesia will be estimated in both treatment groups. Pairwise comparisons will be performed to test for equality of the survival curves between the 2 treatment groups using both the log-rank and the Wilcoxon test); iv) total usage of analgesia in each treatment group (the total usage of analgesia will be compared by an analysis of variance with treatment and center as independent variables. A pairwise comparison will be performed between the treatment groups); and v) VAS assessment of pain at the site of operation in each treatment group (The VAS score at each time point will be compared by an analysis of variance with treatment and center as independent variables. A pairwise comparison will be performed between the treatment groups). […] The efficacy analysis was performed on the data obtained ten days postoperatively. The safety analysis was performed based on the safety data for the entire study, including the 6 week and 12 week follow-up periods. The blind was broken at the time the efficacy analysis was performed. However, the individual treatment assignment was available to the statistical analysis group only. All other personnel involved in the study, including the Investigator, study monitor and proprietary staff, remained blinded until the entire study was completed.
The study was designed to include 40 evaluation subjects. […] Each subject had six (6) study visits: a Screening Day (Day −28 to −1), an Operation Day (Day 0), and four (4) Follow-up visits (scheduled for Days 3, 10 and weeks 6 and 12).
On Operation Day (Day 0) the following was performed: a) Pre-operation: Prior to the initiation of an ankle block, inclusion/exclusion criteria assessment was performed. […] Immediately prior to wound closure, the Investigator slowly dripped the study medication (4 mL) from a syringe into the wound, ensuring even tissue exposure. The wound was then be closed according to normal practices and procedures.
In the 24 hours following administration of study medication, vital signs (supine pulse rate and blood pressure) were recorded at 1, 2, 4 and 24 hours post administration. VAS assessment of pain at the operation site was performed at 1, 4, 8, 12 and 24 hours post administration. In those instances where VAS measurements coincide with blood sampling procedures, the VAS assessment was performed first. […] The quantity of each blood sample was 10 mL. Laboratory safety assessments, e.g., haematology, biochemistry, urinalysis were performed at 24 hours post administration. Adverse events were spontaneously reported by the subject and recorded. Rescue analgesia medication was provided to the subject if required (initially diclofenac 50 mg, repeated at 8 hourly intervals if necessary). When diclofenac was judged by the Investigator to provide inadequate pain relief then the subject was provided with alfentanil 1 mg, repeated at 6 hourly intervals, if necessary.

[7] = organic solvents; cited from earlier work
[8] = tested on: rats; details: systemic, cited from earlier work

## CNCCCN1c2ccccc2CCc2ccccc21 [desipramine]
[1]
  local antinociceptive action: produced local antinociceptive actions
[2]
  local antinociceptive action: produced local antinociceptive actions

## COc1cc(CNC(=O)CCCC/C=C/C(C)C)ccc1O [purified capsaicin, N-(4-hydroxy-3-methoxybenzyl)-8-methylnon-trans-6-enamide]
[3]; 10 μg intra-articular after 2% lignocaine
  patients reporting transient burning pain / post injection hyperalgesia after instillation: no subjects
[3]; 10 μg intra-articular after 2% lignocaine, listed as capsaicin
  patients reporting transient burning pain / post injection hyperalgesia after instillation: 0 of 4
[3]; 100 μg dose group, individual subject
  duration of post-administration (hyper) algesic pain: 9 min
[3]; 100 μg intra-articular after 2% lignocaine
  patients reporting transient burning pain / post injection hyperalgesia after instillation: 1
[3]; 100 μg intra-articular after 2% lignocaine, listed as capsaicin
  patients reporting transient burning pain / post injection hyperalgesia after instillation: 1 of 4
[3]; 300 μg intra-articular after 2% lignocaine
  patients reporting transient burning pain / post injection hyperalgesia after instillation: 4
[3]; 300 μg intra-articular after 2% lignocaine, listed as capsaicin
  patients reporting transient burning pain / post injection hyperalgesia after instillation: 4 of 4
[3]; 10-300 μg
  effects on laboratory safety parameters or vital signs: no treatment related effects
  effects on soft tissue, cartilage, or bone upon histopathological examination: no treatment related effects
  signs of erythema, edema, or hemorrhage at the site of injection: no treatment related signs
  systemic side effects: No treatment related systemic side effects
[3]; all cases
  average duration of hyperalgesia: less than thirty minutes
[3]; knee replaced 2-14 days after dosing
  gross and microscopic pathology: normal
[4]
  plasma concentrations compared with 100 μg or 300 μg dose groups: clearly lower
[5]; 9 active patients of 4, 7 and 14 day cohorts, 10-300 μg pooled
  VAS reduction, prior to administration vs day of surgery: 62±14%
[5]; all 3 capsaicin dose groups
  median decrease from baseline to pre-operative time point in VAS for pain at target knee vs placebo: substantially greater
[5]; any of the dose levels 10, 100, 300 μg
  treatment related indication of efficacy (VAS): No clear treatment related indication of efficacy
[6]; 1000 μg into the wound prior to wound closure
  effect on pain score and use of rescue: reduced both pain score as well as the use of rescue
[6]; 1000 μg, individual subjects
  time at which subject required rescue: 1 h and 4 h and 5 h and 8 h and 12 h
[6]; 8 hr
  VAS pain score at operation site: 5.5 +/− 2.3
[6]; 12 hr
  VAS pain score at operation site: 8.2 +/− 3.8
[6]; 24 hr
  VAS pain score at operation site: 1.9 +/− 1.0
[6]; 48 hr
  VAS pain score at operation site: 5.9 +/− 2.5
[7]
  solubility in alcohol, ether, benzene and chloroform: freely soluble
[8]; final doses 50 mg/kg or greater
  effect on pain threshold: pain threshold elevated
[8]; final doses of 25 mg/kg or less, prior to ultra violet radiation
  effect on radiation induced hyperalgesia and pain threshold: prevented radiation induced hyperalgesia, but did not elevate the pain threshold above normal range

## CN(C)CCC=C1c2ccccc2CCc2ccccc21 [amitriptyline]
[1]
  local antinociceptive action: produced local antinociceptive actions
[2]
  local antinociceptive action: produced local antinociceptive actions
